# Test results: patent publication US12252457B2, “Compositions and methods for reducing tactile dysfunction, anxiety, and social impairment” (President and Fellows of Harvard College, priority 2018, dated 2025)
# “And” between values parts separate entries of the source, which are not always exact repeats. Equal entries are not always repeated. Structures can show the parent of a compound that is named as a salt.
# Key:
# SNL rats = assay: Rat spinal nerve ligation (SNL) model of neuropathic pain, Von Frey 50% paw withdrawal threshold; type: in vivo, SD Rat; details: for 50% g Threshold, individual animals: 5 mg/kg; for neuropathic pain sensitivity / mechanical hypersensitivity (mechanical allodynia): SNL rats, Von Frey stimulation of hindpaw glabrous skin; for 50% g Threshold, group Mean: n=8
# Experimental: Chung surgery were conducted on anesthetized rats. Rats were habituated in the testing environment for 15 minutes before allodynia measurement (2-3 times). Pre-dose baseline were taken on day 9 post surgery. Rats that don't show allodynic response at this point were excluded. SNL rats with a paw withdrawal threshold >4 g. The animals were grouped according to 50% paw withdrawal threshold (g) and weight. The animals were dosed test articles and vehicle according to the dose protocol. On the testing day (Day 9), rats were dosed with testing articles with 16 min interval between groups. Rats were measured for allodynic response at 0.75, 1.5, 3 h time point post dosing. All values will be expressed as mean±S.E.M. The significance of the differences among groups will be evaluated by two-way ANOVA followed by Dunnett's test using graphpad Prism 6 software. A p value of less than 0.05 is considered statistically significant.
# [1] = Bio-distribution of isoguvacine by LC-MS; type: in vivo, mouse
# Experimental: FIGS. 19A-19N show acute administration of the peripherally-restricted GABAA receptor agonist isoguvacine improves tactile hypersensitivity in five genetic and one environmental model of ASD. […] Two-way ANOVA with post-hoc Sidak's test, *, p<0.05. FIG. 19B: Response to a light air puff stimulus alone in mice following i.p. administration of either saline or 2 mg/kg midazolam treatment. Responses are expressed as percent of startle response to a 125 dB noise. Two-way ANOVA with post-hoc Sidak's test, *, p<0.05. FIG. 19C: Magnitude of startle response to a 125 dB noise in mice following i.p. administration of either saline or 2 mg/kg midazolam treatment. Responses are expressed as percent of startle response to a 125 dB noise. Two-way ANOVA with post-hoc Sidak's test, *, p<0.05. FIG. 19D: Magnitude of startle response to a 125 dB noise in mice following i.p. administration of saline, midazolam (2 mg/kg) or a peripherally-restricted GABAA receptor agonist, isoguvacine (2 mg/kg). Responses are expressed as percent of startle response to a 125 dB noise. Two-way ANOVA with post-hoc Sidak's test, *, p<0.05. FIGS. 19E-19G: Liquid chromatography mass spectrometry (LC-MS) quantified isoguvacine concentrations in cerebrospinal fluid (CSF) (FIG. 19E), blood (FIG. 19F) or liver (FIG. 19G) samples of mice treated with: i.p. saline, i.p. isoguvacine (“Iso.”, 20 mg/kg, samples collected 1, 3 or 24 hours post-injection), intracerebral injection isoguvacine (20 mg/kg, 1 hour post-injection), i.p. diazepam (“DZ”, 20 mg/kg, 1 hour post injection) or intracerebral injection diazepam (20 mg/kg, 1 hour post injection). FIG. 19H: Normalized peak chloride flux through α1β3γ2- and α2β3γ2-containing GABAA receptors in response to isoguvacine application. […] FIGS. 19I-19K: GABAA receptor subunit RNA expression levels across peripheral somatosensory neuron subtypes, for the alpha (FIG. 19I), beta (FIG. 19J), and gamma (FIG. 19K) subunit types. […] Two-way ANOVA with post-hoc Sidak's test, *, p<0.05. FIG. 19M: Response to a light air puff stimulus alone in mice following i.p. administration of either saline or 2 mg/kg isoguvacine treatment. Responses are expressed as percent of startle response to a 125 dB noise. Two-way ANOVA with post-hoc Sidak's test, *, p<0.05. FIG. 19N: Magnitude of startle response to a 125 dB noise in mice following i.p. administration of either saline or 2 mg/kg isoguvacine treatment. Responses are expressed as percent of startle response to a 125 dB noise. […]
# FIGS. 28A-28U are related to FIGS. 21A-210. FIG. 28A: Liquid chromatography mass spectrometry (LC-MS) quantified isoguvacine concentrations in brain homogenate samples of mice treated with isoguvacine (2 mg/kg, i.p.) from P1-42. […] Responses are expressed as percent of startle response to a 125 dB startle noise. […]
# [2] = 0 Hour (pre-dose baseline), 5 mpk IP
# [3] = printed in the 0.75 Hour column, 5 mpk IP
# [4] = printed in the 1.5 Hour column, 5 mpk IP
# [5] = printed in the 3 Hour column, 5 mpk IP
# [6] = after six-week treatment, 2 mg/kg i.p. daily starting at P0
structure (smiles),measurement,setting,value
"NC1C=C(C(=O)O)CCC1 (stereo not shown) [Compound 5, 3-aminocyclohex-1-enecarboxylic acid hydrochloride]",Von frey test (MEAN ± S.E.M.),SNL rats; [2],2.3 ± 0.34 g
same,"50% g Threshold, individual animals","SNL rats; 0 Hour (pre-dose baseline, day 9 post surgery), 5 mpk IP, hydrochloride",0.99 g and 1.10 g and 1.56 g and 2.64 g and 2.81 g (2×) and 3.31 g (2×)
same,"50% g Threshold, individual animals","SNL rats; 0.75 Hour post dosing, 5 mpk IP, hydrochloride",3.33 g and 4.12 g and 2.81 g and 1.85 g and 4.34 g and 3.31 g and 2.37 g and 6.74 g
same,Von frey test (MEAN ± S.E.M.),"SNL rats; 0.75 Hour, 5 mpk IP",3.6 ± 0.54 g
same,"50% g Threshold, individual animals","SNL rats; 1.5 Hour post dosing, 5 mpk IP, hydrochloride",6.74 g (2×) and 5.10 g and 1.85 g and 3.71 g (2×) and 3.31 g and 1.56 g
same,Von frey test (MEAN ± S.E.M.),"SNL rats; 1.5 Hour, 5 mpk IP",4.1 ± 0.70 g
same,"50% g Threshold, individual animals","SNL rats; 3 Hour post dosing, 5 mpk IP, hydrochloride",6.42 g and 3.33 g and 2.81 g and 2.61 g and 3.71 g and 4.34 g and 0.82 g and 7.91 g
same,Von frey test (MEAN ± S.E.M.),"SNL rats; 3 Hour, 5 mpk IP",4.0 ± 0.79 g
same,neuropathic pain sensitivity / mechanical hypersensitivity (mechanical allodynia),SNL rats; hydrochloride,reduce tactile over-reactivity (mechanical allodynia)
same,neuropathic pain sensitivity / mechanical hypersensitivity (mechanical allodynia),"SNL rats; listed as compound 5, hydrochloride",reduce neuropathic pain sensitivity
same,"50% g Threshold, group Mean",SNL rats; [3],2.31 g
same,"50% g Threshold, group Mean",SNL rats; [4],3.61 g
same,"50% g Threshold, group Mean",SNL rats; [5],4.09 g
"O=C(O)C1=CCNCC1 [Isoguvacine, isoguvacine]",Von frey test (MEAN ± S.E.M.),SNL rats; [2],2.3 ± 0.33 g
same,"50% g Threshold, individual animals","SNL rats; 0 Hour (pre-dose baseline, day 9 post surgery), 5 mpk IP",0.99 g and 1.10 g and 1.85 g and 2.23 g and 2.81 g and 3.00 g and 3.31 g (2×)
same,"50% g Threshold, individual animals","SNL rats; 0.75 Hour post dosing, 5 mpk IP",1.31 g (2×) and 2.37 g (2×) and 2.81 g and 1.56 g (2×) and 0.99 g
same,Von frey test (MEAN ± S.E.M.),"SNL rats; 0.75 Hour, 5 mpk IP",1.8 ± 0.23 g
same,"50% g Threshold, individual animals","SNL rats; 1.5 Hour post dosing, 5 mpk IP",1.85 g (3×) and 2.37 g and 0.82 g and 2.81 g and 1.56 g and 2.64 g
same,Von frey test (MEAN ± S.E.M.),"SNL rats; 1.5 Hour, 5 mpk IP",2.0 ± 0.23 g
same,"50% g Threshold, individual animals","SNL rats; 3 Hour post dosing, 5 mpk IP",2.81 g and 6.74 g and 7.91 g and 3.33 g and 5.15 g and 4.34 g and 5.77 g and 3.31 g
same,Von frey test (MEAN ± S.E.M.),"SNL rats; 3 Hour, 5 mpk IP",4.9 ± 0.64 g
same,analgesia effect,"SNL rats; 3 hour time point, 5 mpk IP",significant analgesia effect
same,neuropathic pain sensitivity / mechanical hypersensitivity (mechanical allodynia),SNL rats,reduce neuropathic pain sensitivity
same,neuropathic pain sensitivity / mechanical hypersensitivity (mechanical allodynia),SNL rats; listed as isoguvacine,reduce tactile over-reactivity (mechanical allodynia)
same,"50% g Threshold, group Mean",SNL rats; [3],2.32 g
same,"50% g Threshold, group Mean",SNL rats; [4],1.78 g
same,"50% g Threshold, group Mean",SNL rats; [5],1.97 g
same,drug in blood and liver,[1]; 20 mg/kg i.p.,detected in the blood and liver
same,drug in brain or cerebrospinal fluid,[1]; 20 mg/kg i.p.,undetectable in the brain or cerebrospinal fluid
same,drug in brain or spinal cord,[1]; [6],not the brain or spinal cord
same,drug in liver,[1]; [6],detected in liver
